This passage reports melting point and IC50 results from patent US8975250B2, “5 oxo-5,8-dihydropyrido[2,3-d]pyrimidine derivatives as CaMKII kinase inhibitors for treating cardiovascular diseases” (SANOFI, priority 2010, dated 2015).

Structures can show the parent of a compound that is named as a salt.

The term melting point denotes the temperature, or range, at which the solid turns liquid. The term IC50 denotes the concentration at which inhibition is half-maximal.

Test system in the first series: not given
Experiment: not given
Settings: not given
The compound `CCN1CCN(c2cc(F)c(Nc3ncc4c(=O)c(C(N)=O)c(N)n(CC)c4n3)c(OC)c2)CC1` (as salt: HCl) [compound 28, 7-Amino-8-ethyl-2-[4-(4-ethylpiperazin-1-yl)-2-fluoro-6-methoxyphenylamino]-5-oxo-5,8-dihydropyrido[2,3-d]pyrimidine-6-carboxamide] yielded a melting point above 260 °C.
`CCn1c(N)c(C(N)=O)c(=O)c2cnc(Nc3ccc(C4CCN(C5CC5)CC4)cc3OC)nc21` (as salt: HCl) [compound 29, 7-Amino-2-[4-(1-cyclopropylpiperid-4-yl)-2-methoxyphenylamino]-8-ethyl-5-oxo-5,8-dihydropyrido[2,3-d]pyrimidine-6-carboxamide] had a melting point of 226 to 228 °C.
The same measure, in the same setting: to `CCn1c(N)c(C(N)=O)c(=O)c2cnc(Nc3ccc(N4CCN(C5CC5)CC4)cc3OC(F)F)nc21` (as salt: HCl) [compound 33, 7-Amino-2-[4-(4-cyclopropylpiperazin-1-yl)-2-difluoromethoxyphenylamino]-8-ethyl-5-oxo-5,8-dihydropyrido[2,3-d]pyrimidine-6-carboxamide] belongs 204 to 206 °C; to `CCn1c(N)c(C(N)=O)c(=O)c2cnc(Nc3ccc(C4CCN(CCC(F)(F)F)CC4)cc3OC)nc21` (as salt: HCl) [compound 35, 7-Amino-8-ethyl-2-{2-methoxy-4-[1-(3,3,3-trifluoropropyl)piperid-4-yl]phenylamino}-5-oxo-5,8-dihydropyrido[2,3-d]pyrimidine-6-carboxamide], 199 °C; to `CCn1c(N)c(C(N)=O)c(=O)c2cnc(Nc3ccc(CCN4CCCCC4)cc3)nc21` (as salt: HCl) [compound 65, 7-Amino-8-ethyl-5-oxo-2-[4-(2-piperid-1-ylethyl)phenylamino]-5,8-dihydropyrido[2,3-d]pyrimidine-6-carboxamide], 216 °C.
`NCCCn1c(N)c(C(N)=O)c(=O)c2cnc(Nc3ccc(N4CCOCC4)cc3)nc21` (as salt: HCl) [compound 81, 7-Amino-8-(3-aminopropyl)-2-(4-morpholin-4-ylphenylamino)-5-oxo-5,8-dihydropyrido[2,3-d]pyrimidine-6-carboxamide]: the melting point amounted to 250 °C.
As for `COc1cc(C2CCNCC2)ccc1Nc1ncc2c(=O)c(C(N)=O)c(N)n(-c3ccccc3)c2n1` (as salt: HCl) [compound 113, 7-Amino-2-(2-methoxy-4-piperid-4-ylphenylamino)-5-oxo-8-phenyl-5,8-dihydropyrido[2,3-d]pyrimidine-6-carboxamide], the melting point is 228 °C (dec.).
Same read-out and setting: to `CCN1CCN(c2ccc(Nc3ncc4c(=O)c(C(N)=O)c(N)n(CC(C)(C)O)c4n3)c(OC)c2)CC1` (as salt: HCl) [compound 129, 7-Amino-2-[4-(4-ethylpiperazin-1-yl)-2-methoxyphenylamino]-8-(2-hydroxy-2-methylpropyl)-5-oxo-5,8-dihydropyrido[2,3-d]pyrimidine-6-carboxamide] belongs 222 °C (dec.); to `COc1cc(C2CCN(CCC(F)(F)F)CC2)ccc1Nc1ncc2c(=O)c(C(N)=O)c(N)n(CC(C)(C)O)c2n1` (as salt: HCl) [compound 130, 7-Amino-8-(2-hydroxy-2-methylpropyl)-2-{2-methoxy-4-[1-(3,3,3-trifluoropropyl)piperid-4-yl]phenylamino}-5-oxo-5,8-dihydropyrido[2,3-d]pyrimidine-6-carboxamide], above 260 °C; to `COCCN1CCC(c2ccc(Nc3ncc4c(=O)c(C(N)=O)c(N)n(CC(C)(C)O)c4n3)c(OC)c2)CC1` (as salt: HCl) [compound 133, 7-Amino-8-(2-hydroxy-2-methylpropyl)-2-{2-methoxy-4-[1-(2-methoxyethyl)piperid-4-yl]phenylamino}-5-oxo-5,8-dihydropyrido[2,3-d]pyrimidine-6-carboxamide], 170 °C (dec.).
Consider `COc1cc(C2CCN(C)CC2)ccc1Nc1ncc2c(=O)c(C(N)=O)c(N)n(-c3ccccc3)c2n1` (as salt: HCl) [compound 134, 7-Amino-2-[2-methoxy-4-(1-methylpiperid-4-yl)phenylamino]-5-oxo-8-phenyl-5,8-dihydropyrido[2,3-d]pyrimidine-6-carboxamide], for which the melting point was 256 °C (dec.).
On the same count and under the same terms, to `CCn1c(N)c(C(N)=O)c(=O)c2cnc(Nc3ccc([C@@H]4C[C@H]4N(C)C)cc3)nc21` (racemic) (as salt: HCl) [compound 97, (±)-7-Amino-2-trans-[4-(2-dimethylaminocyclopropyl)phenylamino]-8-ethyl-5-oxo-5,8-dihydropyrido[2,3-d]pyrimidine-6-carboxamide] belongs 208 to 210 °C (dec.).
Still for that read-out and setting: next, `CCn1c(N)c(C(N)=O)c(=O)c2cnc(Nc3ccc(O)cc3)nc21` [compound 1, 7-Amino-8-ethyl-2-(4-hydroxyphenylamino)-5-oxo-5,8-dihydropyrido[2,3-d]pyrimidine-6-carboxamide]: above 260 °C.
The same measure, in the same setting: to `NC(=O)c1c(N)n(C2CCCC2)c2nc(Nc3ccc(N4CCOCC4)cc3)ncc2c1=O` [compound 8, 7-Amino-8-cyclopentyl-2-(4-morpholin-4-ylphenylamino)-5-oxo-5,8-dihydropyrido[2,3-d]pyrimidine-6-carboxamide] belongs 265 °C.
With `CCn1c(N)c(C(N)=O)c(=O)c2cnc(Nc3cccc(N4CCOCC4)c3)nc21` [compound 17, 7-Amino-8-ethyl-2-(3-morpholin-4-ylphenylamino)-5-oxo-5,8-dihydropyrido[2,3-d]pyrimidine-6-carboxamide], the melting point stood at 195 °C.
On the same count and under the same terms, to `CCn1c(N)c(C(N)=O)c(=O)c2cnc(Nc3ccc(CCO)cc3)nc21` [compound 55, 7-Amino-8-ethyl-2-[4-(2-hydroxyethyl)phenylamino]-5-oxo-5,8-dihydropyrido[2,3-d]pyrimidine-6-carboxamide] belongs 289 °C.

The target of the next series is CaMKIIδ (Homo sapiens (Human), UniProt Q13557). As to the kind of experiment: radioactive test on the recombinant CaMKIIδ enzyme (ATP-γ33P incorporation into Autocamtide-2). Type of series: biochemical. The following applies: recombinant CaMKIIδ 0.37 nM, 10 μM ATP, 100 μM Autocamtide-2, two hours at 37°C. Here is the method: The compounds according to the invention were tested in vitro for their capacity to inhibit the kinase function of calcium/calmodulin-dependent protein kinase II delta (CaMKIIδ). CaMKIIδis an intracellular serine/threonine kinase. It has an enzymatic domain that is capable of using ATP to autophosphorylate. Its kinase function allows it to use ATP to phosphorylate its substrates on the serines and/or threonines. Several enzymatic and cellular tests are used to evaluate the activity of the products with respect to the kinase function of CaMKIIδ. The kinase activity of CaMKIIδis evaluated by means of a radioactive test on the recombinant CaMKIIδenzyme. The amount of ATP-γ33P incorporated into the specific substrate Autocamtide-2 during its phosphorylation by CaMKIIδis measured. The effect of the products is quantified by the concentration of product that inhibits the total activity of CaMKIIδby 50% (50% inhibitory concentration=IC50). For the determination of the IC50 values, the product is diluted in 100% of DMSO to obtain a 10 mM stock solution. The concentration range tested during the radioactive test ranges from 3 to 10 000 nM with a final concentration in the test of 1% DMSO. This concentration range may, for the most powerful compounds, be extended to 0.1 nM. On the day of the operation, 5 μl of the compounds are deposited in each well of a 96-well plate at 10 times the concentration of that to be tested. Each concentration is tested in duplicate on the same plate. The negative controls (0% activity) and positive controls (100% activity) receive 5 μL of 10% DMSO solution. A reaction premix containing the 1×kinase buffer and an ATP-MgCl2 mixture is prepared. Extemporaneously, a mixture containing the substrate Autocamtide-2 (100 μM) with calmodulin and calcium, and the solution of enzyme CaMKIIδ, is added to the premix. 45 μL of this mixture are immediately deposited per well. The final concentrations in the 50 μL final volume are as follows: compound 1X, 0.37 nM of CaMKIIδ(Invitrogen reference PV3373), 10 μM of ATP (1 μCi per well), 100 μM of Autocamtide-2, […] of calmodulin, 15 mM MgCl2, 400 μM CaCl2, 10 mM β-glycerophosphate, and 1% of DMSO. Two negative controls are prepared on each plate, a first without enzyme CaMKIIδ, and a second without substrate Autocamtide-2; these two elements are replaced with water. The plate is then incubated for two hours at 37°C. with gentle shaking. The reaction is stopped by adding 20 μL per well of H3PO4 solution. The 50 μL of each well are transferred onto a Whatman P81 filter. After rinsing twice with H3PO4 (150 μl/well per wash), followed by two rinses with 150 μL of H2O, 50 μL of scintillant are added per well. The amount of phosphorylated substrate is detected by means of a liquid scintillation counter. The inhibitory activity toward CaMKIIδis given by the concentration that inhibits 50% of the activity of CaMKIIδ. The IC50 values are generally between 10 μM and 10^−5 μM. In the table below, the IC50 values measured for several compounds (I) of the invention are presented as examples.
For `CCn1c(N)c(C(N)=O)c(=O)c2cnc(Nc3ccc(C(=O)N4CCN(C)CC4)cc3)nc21` [compound 4, 7-Amino-8-ethyl-2-[4-(4-methylpiperazine-1-carbonyl)phenylamino]-5-oxo-5,8-dihydropyrido[2,3-d]pyrimidine-6-carboxamide], the IC50 was 260 nM.
`CCn1c(N)c(C(N)=O)c(=O)c2cnc(Nc3ccc(C4CCN(C5CC5)CC4)cc3OC)nc21` [compound 29, 7-Amino-2-[4-(1-cyclopropylpiperid-4-yl)-2-methoxyphenylamino]-8-ethyl-5-oxo-5,8-dihydropyrido[2,3-d]pyrimidine-6-carboxamide]: the half-maximal inhibitory concentration (IC50) is 17 nM.
As to `CCn1c(N)c(C(N)=O)c(=O)c2cnc(Nc3ccc(C4CCN(CCC(F)(F)F)CC4)cc3OC)nc21` [compound 35, 7-Amino-8-ethyl-2-{2-methoxy-4-[1-(3,3,3-trifluoropropyl)piperid-4-yl]phenylamino}-5-oxo-5,8-dihydropyrido[2,3-d]pyrimidine-6-carboxamide], the IC50 was 22 nM.
For `CC(C)Cn1c(N)c(C(N)=O)c(=O)c2cnc(Nc3ccc(CCN4CCOCC4)cc3)nc21` [compound 52, 7-Amino-8-isobutyl-2-[4-(2-morpholin-4-ylethyl)phenylamino]-5-oxo-5,8-dihydropyrido[2,3-d]pyrimidine-6-carboxamide], the concentration for half-maximal inhibition (IC50) worked out at 139 nM.
Same read-out and setting: next, `CN(C)Cc1ccc(Nc2ncc3c(=O)c(C(N)=O)c(N)n(CC(F)(F)F)c3n2)cc1` [compound 60, 7-Amino-2-(4-dimethylaminomethylphenylamino)-5-oxo-8-(2,2,2-trifluoroethyl)-5,8-dihydropyrido[2,3-d]pyrimidine-6-carboxamide]: 663 nM.
For the compound `CCn1c(N)c(C(N)=O)c(=O)c2cnc(Nc3ccc(N4CCC(N5CCCC5)CC4)c(Cl)c3)nc21` [compound 61, 7-Amino-2-[3-chloro-4-(4-pyrrolidin-1-ylpiperid-1-yl)phenylamino]-8-ethyl-5-oxo-5,8-dihydropyrido[2,3-d]pyrimidine-6-carboxamide], the IC50 stood at 8 nM.
